75 molecules from patent US10940139B2, “Compounds that interact with the Ras superfamily for the treatment of cancers, inflammatory diseases, rasopathies, and fibrotic disease” (Shy Therapeutics LLC, priority 2017, dated 2021) can be followed below.

KRas G12D/Q61H double mutant, sequence (P01116-2 other isoform, or with tags, fused parts or gaps G12D/Q61H): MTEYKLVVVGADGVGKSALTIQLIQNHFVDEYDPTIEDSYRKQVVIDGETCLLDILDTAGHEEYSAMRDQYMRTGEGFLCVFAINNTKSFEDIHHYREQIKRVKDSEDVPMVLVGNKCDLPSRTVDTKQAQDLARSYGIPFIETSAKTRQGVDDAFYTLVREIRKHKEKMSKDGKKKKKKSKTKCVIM

The target of one assay is KRas G12D/Q61H double mutant (Homo sapiens (Human), UniProt P01116, G12D/Q61H). Put plainly: Ras GTP binding domain inhibition assay (labeled GTP). The following applies: 20 μM compound; KRas G12D/Q61H double mutant; read-out: % Inhibition at 20 μM of K-Ras mutant and wild-type protein, KRas G12D Q61H. On the procedure:
Buffer-I: • 50 mM Tris, pH 7.5 • 150 mM NaCl (optional) • 1 mM MgCl2 • 1 mM DTT. • KRas G12D mutant protein was expressed as a His-tagged protein. Purified His-KRas G12D protein was diluted in buffer-I to a final concentration of 3-10 μg/ml. • 200 μl of the diluted His-KRas G12D protein was added to a nickel coated 96 well plate and incubated overnight at 4° C. • The next day, wells were washed 3× in 200 μl of Buffer-I. • Then 200 μl of Buffer-I were added to each well in the presence of 1% DMSO. • Tested compounds were added to the protein-coated wells at a concentration of 20 μM, and incubated for 3 hours at room temperature. While performing IC50 measurements a serial dilution of all tested concentrations was prepared.
Then 22 μl of Cy3-GTP or Cy5-GTP was added to each well. The labeled GTP was incubated for 45 min. at room temperature. • Following GTP incubation, wells were washed 3× in Buffer-I, and 200 μl of Buffer-I were added to each well. • Following washes, the amount of bound labeled-GTP was measured with an Eppendorf AF2200 plate reader.
By substituting KRas G12D mutant protein with KRas G12C mutant, KRas wild type, KRas Q61H mutant, KRas G12D/Q61H double mutant or KRas G12C/Q61H double mutant under the assay conditions described above, KRas G12C mutant KRas wild type, KRas Q61H mutant, KRas G12D/Q61H double mutant and KRas G12C/Q61H double mutant inhibition, respectively, were each determined.
As to `CCc1nc2ccc(C(=O)Nc3ccccc3C(=O)N3CC(C)OC(C)C3)cc2nc1CC` (stereo not shown), the inhibition at 20 µM lay in the range of 25 to 50%.

As for `COc1ccc(C(=O)NC(C)Cc2ccc(-c3ccccc3)cc2)c(OC)c1OC` (stereo not shown), the inhibition at 20 µM lay in the range of 25 to 50%.

On to `CC1CC1COC(=O)c1sccc1S(=O)(=O)N1CCSCC1` (stereo not shown), for which the inhibition at 20 µM was in the range of 25 to 50%. On to `C#CCN(Cc1ccc(C)cc1)c1ccc(C#N)cc1[N+](=O)[O-]`, for which the inhibition at 20 µM fell in the range of 1 to 25%. Consider `CC1CCCN(c2nc(-c3ccc(O)cc3O)cs2)C1` (stereo not shown), for which the inhibition at 20 µM was in the range of 25 to 50%.

On to `C=CCc1cc(OCC)ccc1OCC(=O)NCc1ccc(OC)cc1`, for which the inhibition at 20 µM was 25 to 50%. On the same count and under the same terms, then `Cc1ccc(OCCn2c(CN3CCCCC3)nc3ccccc32)cc1C`, with 25 to 50%; and `CCc1cc(N2CC(Cc3cc(OC)cc(OC)c3)C2)nc(-c2ccncc2)n1`, with 1 to 25%. `CC(C)(CN1CCN(c2cccc(Cl)c2)CC1)NS(=O)(=O)c1ccccc1`: the inhibition at 20 µM lay in the range of 25 to 50%. Same read-out and setting: then `COc1ccc(N(C(=O)c2ccc(COc3ccccc3)o2)C(C)C2CC2)cc1` (stereo not shown), with 25 to 50%. As for `Cn1ccnc1C(NCCOc1ccc2cc(Br)ccc2c1)C1CC1` (stereo not shown), the inhibition at 20 µM was 1 to 25%. Take `C=CCOc1ccc(C(=O)c2ccccc2)c(OCC(=O)NC2(C#N)CCCC2)c1`: the inhibition at 20 µM was in the range of 25 to 50%.

For the molecule `Cc1ccccc1N(CC(=O)NCC1CCCCCC1)S(C)(=O)=O`, the inhibition at 20 µM lay within 1 to 25%. Regarding `COc1ccc(OCCCn2c(C(F)(F)F)c(Br)cnc2=O)cc1`, the inhibition at 20 µM was in the range of 25 to 50%. The same measure, in the same setting: then `CCn1c(SCCCc2nc3ccccc3o2)nc2ccsc2c1=O`, with 1 to 25%; and `Cc1nc2ccccc2n1CCNC(=O)c1cc(S(=O)(=O)N(C)C)ccc1N1CCOCC1`, with 1 to 25%; and `Cc1ccc(S(=O)(=O)N2CCN(C(=O)CNC(=O)c3ncccc3O)CC2)s1`, with 25 to 50%. Same read-out and setting: then `Cc1cc(C)c(C)c(S(=O)(=O)N2CCN(C(C)C(=O)NCc3ccc4c(c3)OCO4)CC2)c1C` (stereo not shown), with 1 to 25%.

`COC(=O)c1c(CN(C)Cc2nccn2CC(F)(F)F)nc2ccccc2c1-c1ccccc1`: the inhibition at 20 µM was in the range of 25 to 50%.

The same assay, now with this note: 20 μM compound; read-out: % Inhibition at 20 μM KRas G12D Q61H.
As for `O=C(Nc1nnc(-c2ccccn2)[nH]1)c1ccc(NC2CC2)nc1`, the inhibition at 20 µM fell in the range of 25 to 50%.

Regarding `O=C(NCc1ccccn1)c1csc(-c2ccc(Cl)cc2)n1`, the inhibition at 20 µM fell in the range of 1 to 25%. Same read-out and setting: then `Cc1nc(CC(=O)Nc2nnc(-c3ccccn3)[nH]2)cs1`, with 25 to 50%; and `CC(=O)N1CCC(Nc2nc(-c3ccccn3)nc3c2CCC3)C1` (stereo not shown), with 25 to 50%. With `Cc1noc(CNc2cc(C(F)(F)F)ccc2N2CCCC2)n1`, the inhibition at 20 µM lay in the range of 25 to 50%. Consider `Cc1ccc(-c2c(C)sc3nc(-c4cnccn4)[nH]c(=O)c23)cc1`, for which the inhibition at 20 µM is 25 to 50%. With `CC(=O)Nc1ccc(C(F)(F)F)cc1NCc1nc(C)no1`, the inhibition at 20 µM lay in the range of 1 to 25%. For `CC(=O)Nc1cccc(C(C)N(Cc2ccccc2)Cc2nc(-c3ccc(Cl)cc3)no2)c1` (stereo not shown), the inhibition at 20 µM was in the range of 1 to 25%. With `O=C(c1csc2c(O)nc(-c3ccccn3)nc12)N1CCc2ccccc2CC1` [drawing 2690], the inhibition at 20 µM lay in the range of 25 to 50%. On the same count and under the same terms, then `O=C(Nc1nnc(-c2ccccn2)[nH]1)c1cccc(Nc2ncccn2)c1`, with 1 to 25%; and `CC(c1nc(C(C)(C)C)no1)N(C)CC12CC3CC(CC(C3)C1)C2` (stereo not shown), with 25 to 50%; and `Cc1nc(-c2ccccn2)nc(NC(C)CO)c1C` (stereo not shown), with 1 to 25%. As for `Fc1ccccc1-c1csc(C2CN(Cc3ccccc3)CCO2)n1` (stereo not shown), the inhibition at 20 µM was 1 to 25%. On to `CCOc1ccc(NC(=O)CN(C)Cc2coc(-c3ccc(C)cc3C)n2)cc1OCC`, for which the inhibition at 20 µM fell in the range of 1 to 25%.

With `Cc1cc(NCCNC(=O)Cc2ccccc2)nc(-c2ccccn2)n1`, the inhibition at 20 µM was in the range of 25 to 50%.

On to `CN1CCC(C(=O)Nc2nnc(-c3ccccn3)[nH]2)CC1=O` (stereo not shown), for which the inhibition at 20 µM is 25 to 50%. With `Cc1ccccc1OCCn1c(CN2CCOCC2)nc2ccccc21`, the inhibition at 20 µM lay in the range of 1 to 25%. On the same count and under the same terms, then `CCN(CCNC(=O)c1cc(-c2cccnc2)on1)c1cccc(C)c1`, with 25 to 50%; and `COc1cc(C(=O)Nc2nnc(-c3ccccn3)[nH]2)ccc1OCC(N)=O`, with 25 to 50%.

For `CN(C(=O)c1ccc(COc2ccc(Br)cc2)o1)C1CCS(=O)(=O)C1` (stereo not shown), the inhibition at 20 µM is 1 to 25%. Regarding `O=C(CCN1C(=O)NC2(CCCCC2)C1=O)Nc1nnc(-c2ccccn2)[nH]1`, the inhibition at 20 µM was 1 to 25%.

With `CCCn1c(CNc2ccccc2OCCOC)nc2cc(S(=O)(=O)N(C)C)ccc21`, the inhibition at 20 µM was 1 to 25%. For the molecule `CC(C)Cc1nc(CN(C)CC(=O)Nc2ccc(Cl)c(S(=O)(=O)N3CCOCC3)c2)no1`, the inhibition at 20 µM lay in the range of 1 to 25%. Still for that read-out and setting: then `COCCn1c(SCc2csc(-c3ccccc3)n2)nc2ccccc21`, with 25 to 50%; and `COc1ccc(OCCn2c(CN3CCCCC3)nc3ccccc32)cc1`, with 1 to 25%; and `O=S(=O)(c1ccccc1)N(CCOc1cccc(Cl)c1)c1nccs1`, with 25 to 50%. On the same count and under the same terms, then `Fc1ccc(OCCSc2nnc(C3COc4ccccc4O3)o2)cc1` (stereo not shown), with 1 to 25%. `FC(F)(F)c1cccc(N2CCN(c3ncnc4sccc34)CC2)c1`: the inhibition at 20 µM was in the range of 1 to 25%. As for `CN(C)C(=O)CCN1CCOC(c2nc(-c3ccccc3)cs2)C1` (stereo not shown), the inhibition at 20 µM was 1 to 25%. Consider `O=C(c1ccccc1)N1CCCc2c(O)nc(-c3ccccn3)nc21`, for which the inhibition at 20 µM lay in the range of 25 to 50%. On the same count and under the same terms, then `O=C(Nc1nnc(-c2ccccn2)s1)c1nccc2ccccc12`, with 1 to 25%; and `COCCCC1CCN(C(=O)c2csc3c(O)nc(-c4ccccn4)nc23)CC1` [drawing 2677], with 51 to 75%. Consider `COc1cc2c(cc1OC)CCN(C(=O)c1csc3c(O)nc(-c4ccccn4)nc13)CC2` [drawing 2691], for which the inhibition at 20 µM was in the range of 51 to 75%. Still for that read-out and setting: then `CN(Cc1nnc(-c2ccccc2)o1)Cc1ccccc1N1CCCC1`, with 1 to 25%; and `O=C(CCc1ccccc1F)Nc1nnc(-c2ccccn2)[nH]1`, with 25 to 50%. On the same count and under the same terms, then `FC(F)(F)c1csc2nc(-c3ccccn3)nc(N3CCOCC3)c12` [drawing 2741], with 1 to 25%.

As for `O=C(NCCc1cnc(O)nc1)c1csc2nc(-c3ccccn3)nc(N3CCOCC3)c12` [drawing 2810], the inhibition at 20 µM was 1 to 25%.

Regarding `CCOC(=O)CCN(Cc1cccnc1)c1nc(C(F)(F)F)ccc1C#N`, the inhibition at 20 µM is 1 to 25%. Same read-out and setting: then `COCCCC(=O)N1CCCc2c(O)nc(-c3ccccn3)nc21` [drawing 2648], with 51 to 75%. For `CC1CN(Cc2ccccc2)CCN1C(=O)c1csc2c(O)nc(-c3ccccn3)nc12` (stereo not shown), the inhibition at 20 µM lay within 25 to 50%.

As for `Nc1nc(-c2ccccn2)nc2scc(-c3ccccc3)c12` [drawing 2822], the inhibition at 20 µM was 1 to 25%.

Staying with this assay, now noted: 20 μM; read-out: KRas G12D Q61H % Inh.
Take `CN(CC(=O)Nc1nnc(-c2ccccn2)[nH]1)S(C)(=O)=O` [drawing 2496]: the inhibition at 20 µM lay in the range of 51 to 75%. As to `CN(CC(=O)N1CCCc2c(O)nc(-c3ccccn3)nc21)S(=O)(=O)c1ccccc1` [drawing 2641], the inhibition at 20 µM is 1 to 25%. As for `CCCCSc1nc(-c2cccs2)c(C(=O)C(F)(F)F)cc1C#N` [drawing 2618], the inhibition at 20 µM was in the range of 51 to 75%. In the case of `O=C(c1ccc2c(c1)CCO2)N1CCCc2c(O)nc(-c3ccccn3)nc21`, the inhibition at 20 µM was 1 to 25%. With `O=C(Cc1ccc(-n2cnnn2)cc1)Nc1nnc(-c2ccccn2)[nH]1` [drawing 2452], the inhibition at 20 µM was in the range of 51 to 75%. With `O=C(Nc1nnc(-c2ccccn2)[nH]1)c1ccc(Oc2ccccc2)nc1` [drawing 2491], the inhibition at 20 µM was 51 to 75%. As to `Cc1cccc(OCC(=O)Nc2nnc(-c3ccccn3)[nH]2)c1` [drawing 2555], the inhibition at 20 µM was 51 to 75%. Same read-out and setting: then `O=C(COc1ccc2c(c1)CCC2)Nc1nnc(-c2ccccn2)[nH]1` [drawing 2526], with 51 to 75%.

For `Oc1nc(-c2ccccn2)nc2c1CCCN2` [drawing 2637], the inhibition at 20 µM fell in the range of 25 to 50%. Take `COc1cccc(COCC(=O)Nc2nnc(-c3ccccn3)[nH]2)c1` [drawing 2534]: the inhibition at 20 µM fell in the range of 51 to 75%. As for `COc1ccccc1-c1cc(C(=O)Nc2nnc(-c3ccccn3)[nH]2)no1` [drawing 2539], the inhibition at 20 µM fell in the range of 51 to 75%.

On to `Cc1nc(-c2ccccn2)nc(O)c1CCC(=O)Nc1cc(F)ccc1F` [drawing 2596], for which the inhibition at 20 µM was in the range of 51 to 75%. Turning to `CC(C)c1nc(CC(=O)Nc2nnc(-c3ccccn3)[nH]2)cs1` [drawing 2480], the inhibition at 20 µM fell in the range of 51 to 75%. As to `Cc1noc(C)c1CC(=O)Nc1nnc(-c2ccccn2)[nH]1` [drawing 2492], the inhibition at 20 µM was 51 to 75%.

The assay is the same for the next values; noted with them: at 20 μM; read-out: KRas G12D Q61H % Inh.
Take `O=C(c1csc2c(O)nc(-c3ccccn3)nc12)N1CCNC(c2ccc(Cl)cc2)C1` (stereo not shown) [drawing 3843]: the inhibition at 20 µM lay within 25 to 50%.

The assay is the same for the next values; noted with them: read-out: KRas G12D Q61H IC50.
What is called IC50 is the concentration that inhibits the measured activity by half. Consider `Cc1cccc(OCC(=O)Nc2nnc(-c3ccccn3)[nH]2)c1` [drawing 2555], for which the IC50 was in the range of 5 to 10 µM.
